From paper PMC5705213, “Immunoproteasome functions explained by divergence in cleavage specificity and regulation” (eLife, 2017)
One block for each molecule: values may come before it. *1 amine or outer side, *2 acyl side, *3 side chain or, on linkers, in order; H or OH if unused. Where a SMILES comes first, the peptide text is derived from it. The star is where a group is joined. ACC = NC(=O)Cc1cc(=O)oc2cc(N*)ccc12; AMC = Cc1cc(=O)oc2cc(N*)ccc12; Suc = O=C(CCC(=O)[*:2])[*:1]

Key:
[1] = target: T1, human immunoproteasome core particle (i20S) (Homo sapiens, UniProt P20618+P28062); experiment: Purified proteasome activity assay with fluorogenic substrates, SDS-activated i20S; type: biochemical
T1 construct: purchased Boston Biochem E-370
Description: Non-prime-side substrate specificity profiling was performed with a complete, diverse library of 160,000 fluorogenic substrates containing the general structure acetyl-P4-P3-P2-P1-(7-amino-4-carbamoylmethylcourmarin, ACC) ([Harris et al., 2000]). For each sub-library, 10 nM human i20S or c20S underwent SDS pre-activation for 1 hr at room temperature in assay buffer (20 mM Tris, pH 8.0, 0.5 mM EDTA) containing 0.03% SDS. […] Activity assays were carried out over 1 hr following two-fold sample dilution in the same 0.03% SDS-containing buffer that also contained a 250 μM final concentration of PS-SCL substrate pool. Activity was recorded in black 96-well round bottom plates (Costar, COrning, NY) using a BioTek Synergy H4 Hybrid Multi-Mode Microplate Reader set to λex = 380 nm and λem = 460 nm (gain = 63). Initial velocity in relative fluorescence units per second (RFU/s) was calculated using a linear fit of the progress curves with Gen5 software v.2.03.
Activity assays with individual fluorogenic substrates were carried out as described above for the PS-SCL assays using final concentrations of 5 nM SDS-activated i20S or c20S and 10 μM substrate except where noted below. The commercial substrates Suc-LLVY-AMC, Ac-WLA-AMC (Boston Biochem, S-330), and Ac-ANW-AMC (Boston Biochem, S-320) were used as supplied. To convert cleaved substrate RFU to free AMC or ACC dye concentration, calibration curves were prepared through total enzymatic hydrolysis of ACC- or AMC-containing peptides that had been quantified through amino acid analysis (Alphalyse, Inc.). Substrate selectivity of PA28α- and SDS-activated 20S proteasomes was compared following 1 hr pre-incubation at room temperature either in the presence of 0.03% SDS or with 12 molar equivalents of PA28α activator in the absence of SDS. For substrate selectivity assays with mixed, purified proteasomes, i20S and c20S underwent individual SDS pre-activation prior to assaying with 5 nM final concentration of pooled 20S. Proteasome ratio assays were performed with 10 μM EWFW-ACC, 30 μM iso-VQA-ACC, and 30 μM Suc-LLVY-AMC. All activity measurements were recorded on the BioTek plate reader described above using λex = 380 nm and λem = 460 nm (gain = 63) for ACC substrates and Suc-LLVY-AMC; 345 nm and λem = 445 nm (gain = 63) for Ac-WLA-AMC and Ac-ANW-AMC; and λex = 328 nm and λem = 393 nm (gain = 75) for the GEWHWPS IQ substrate. Michaelis-Menten calculations were performed using a non-linear fit in Prism v.6.0.

LMP7 / β5 = experiment: MOLT-4 lysate proteasome activity assay, IC50, LLVY-AMC substrate; type: biochemical, human; details: 1 hr pre-incubation, 30 μM Suc-LLVY-AMC, read-out: IC50, detection method LLVY-AMC, subunit LMP7 / β5
Description: Three lysates containing varied proteasome ratios (whole blood, PBMCs, and the MOLT-4 cell line) were assayed in the absence or presence of proteasome inhibitors as described above. Lysates were generated by washing cells in PBS and lysing the resulting cell pellet in a two-fold greater volume of cold lysis buffer (20 mM Tris, pH 8.0, 5 mM EDTA). Total protein concentration was determined using the BCA Protein Assay Kit (Thermo Scientific Pierce) with bovine serum albumin (BSA) as the protein standard. […] Activity assays were carried out over 1 hr following two-fold sample dilution in the same assay buffer containing final concentrations of 10 μM NH2-EWFW-ACC, 30 μM iso-VQA-ACC, or 30 μM Suc-LLVY-AMC. Activity measurements were recorded on the BioTek plate reader described above in 384-well plates using either λex = 380 nm and λem = 460 nm (gain = 85) for the ACC substrates or λex = 345 nm and λem = 445 nm (gain = 85) for the AMC substrate.

Nrf1 = Nrf1 western blot after ONX 0914 pulse treatment; type: cell-based, human; details: RIPA lysates from the cell lines and PBMCs
Description: (§1) SUP-B15 and MOLT-4 cells were seeded at 2 × 10^6/mL in RPMI media containing 10% FBS 24 hr prior to inhibition assays; PBMC vials were thawed and seeded at 4.4 × 10^6/mL in RPMI media with 10% FBS 3 hr prior to inhibition assays. Cells were diluted 2-fold with serum-free RPMI media containing 2X inhibitor or vehicle control (0.5% DMSO and 5% FBS final). Inhibitor treatments were carried out for 1 hr at 37°C, and to remove unbound inhibitor, cells were immediately washed three times (SUP-B15 and PBMCs) or six times (MOLT-4) with D-PBS for 1 hr time points or RPMI media containing 5% FBS for subsequent time points. Cells were incubated at 37°C for the duration of the time course and washed two times in D-PBS to remove serum upon harvest. The cell pellets were flash-frozen in liquid N2 prior to storage at −80°C.
(§2) Cell pellets were thawed and incubated for 30 min on ice in non-denaturing lysis buffer (20 mM Tris, pH 8.0, 5 mM EDTA) or RIPA buffer that contained cOmplete^TM EDTA-free inhibitor cocktail (Roche, Pleasanton, CA). Total protein concentration in supernatants was determined using a Bradford Protein Assay Kit (Thermo Scientific Pierce) or BCA Protein Assay Kit (Cell Signaling Technology), respectively, with BSA as the protein standard. Lysate activity assays were performed following 2-fold dilution of 0.1–0.4 mg/mL lysate into assay buffer as described above. […]

PSMB8 (LMP7) mRNA = experiment: qRT-PCR of PSMB8 (LMP7) mRNA after ONX 0914 pulse treatment; type: cell-based, human; details: SUP-B15, MOLT-4 and PBMCs after one-hour pulse, normalized to GAPDH
Description: as §1
Total RNA was extracted from cells using the RNeasy Plus Mini kit (Qiagen, Germantown, MD). The quantity and quality of RNA was confirmed by absorption measurements at 260 and 280 nm. […] Efficiencies for each primer/probe set were calculated from a serial dilution of Human Reference Total RNA (Agilent) and were >95%. Relative quantification of gene expression was calculated with the comparative cycle threshold method, normalizing for GAPDH expression levels.

[2] = system: rheumatoid arthritis mouse model; design: method as in Muchamuel et al., 2009; details: at a significantly lower dose than bortezomib or CFZ; ref Muchamuel et al., 2009; cited from earlier work
primary human PBMCs = experiment: Cellular proteasome inhibition and recovery assay, PBMCs; type: cell-based; details: primary human PBMCs from healthy donors, one-hour pulse, 24 hr
Description: as §1, §2

SUP-B15 cell line [3] = experiment: Cellular proteasome inhibition and recovery assay, SUP-B15; type: cell-based, human; details: SUP-B15, one-hour pulse, 24 hr time course
Description: as §1, §2

SUP-B15 cell line [4] = experiment: Ubiquitin western blot after one-hour inhibitor pulse treatment; type: cell-based, human; details: ONX 0914 200 nM or PR-825 100 or 125 nM
Description: as §1, §2

β5 = target: T2, β5 (Homo sapiens, UniProt P20618+P28074); experiment: MOLT-4 lysate proteasome activity assay, IC50, iso-VQA-ACC substrate; type: biochemical; details: commercial β5 substrate
T2 construct: For IC50 measurements with the MOLT-4 lysate; endogenous in cells; host or cells: MOLT-4 lysate
Description: Three lysates containing varied proteasome ratios (whole blood, PBMCs, and the MOLT-4 cell line) were assayed in the absence or presence of proteasome inhibitors as described above. Lysates were generated by washing cells in PBS and lysing the resulting cell pellet in a two-fold greater volume of cold lysis buffer (20 mM Tris, pH 8.0, 5 mM EDTA). Total protein concentration was determined using the BCA Protein Assay Kit (Thermo Scientific Pierce) with bovine serum albumin (BSA) as the protein standard.

[5] = iP over cP, Michaelis-Menten analysis

Molecule: CC(=O)N[C@@H](C)C(=O)N[C@@H](CC(N)=O)C(=O)N[C@@H](Cc1c[nH]c2ccccc12)C(=O)Nc1ccc2c(C)cc(=O)oc2c1 [Ac-ANW-AMC] (Ac-Ala-Asn-Trp-{AMC})
Ratio Vmax (i20S/c20S) [1]: 12 | Ratio kcat/Km (i20S/c20S) [1]: 6.0

Molecule: NC(=O)Cc1cc(=O)oc2cc(NC(=O)[C@H](Cc3c[nH]c4ccccc34)NC(=O)[C@H](Cc3ccccc3)NC(=O)[C@H](Cc3c[nH]c4ccccc34)NC(=O)[C@@H](N)CCC(=O)O)ccc12 [EWFW-ACC] (H-EWFW-{ACC})
improvement in Km for the iP ([1]; compared to the parent substrate EWHW-ACC): 7 fold | Ratio Vmax (i20S/c20S) [1]: 16 | Ratio kcat/Km (i20S/c20S) [1]: 4.0 | selectivity at Vmax [1, 5]: 16 fold

Molecule: NC(=O)Cc1cc(=O)oc2cc(NC(=O)[C@H](Cc3c[nH]c4ccccc34)NC(=O)[C@H](Cc3c[nH]cn3)NC(=O)[C@H](Cc3c[nH]c4ccccc34)NC(=O)[C@@H](N)CCC(=O)O)ccc12 [EWHW-ACC] (H-EWHW-{ACC})
Ratio Vmax (i20S/c20S) [1]: 6.0 | Ratio kcat/Km (i20S/c20S) [1]: 8.4 | iP selectivity ([1]; iP over cP, 10 μM substrate concentration): 4.5 fold | selectivity at Vmax [1, 5]: 6 fold

Molecule: Ac-Trp-Leu-Ala-{AMC}
detection of β5 activity in MOLT-4 lysate (β5): unable to specifically detect proteasome activity

More lines, main results first:

IC50 (LMP7 / β5): 53 nM
Molecule: CC(C)C[C@H](NC(=O)[C@H](CCc1ccccc1)NC(=O)CN1CCOCC1)C(=O)N[C@@H](Cc1ccccc1)C(=O)N[C@@H](CC(C)C)C(=O)[C@@]1(C)CO1 [CFZ, carfilzomib]

selectivity at Vmax ([1]; iP and cP, direction not given): 2.0 fold
Molecule: Cc1cc(=O)oc2cc(NC(=O)[C@H](Cc3ccc(O)cc3)NC(=O)[C@@H](NC(=O)[C@H](CC(C)C)NC(=O)[C@H](CC(C)C)NC(=O)CCC(=O)O)C(C)C)ccc12 [LLVY-AMC] (Suc-LLVY-{AMC})
ability to distinguish iP and cP in defined mixtures of each proteasome ([1]; mixed ratios of purified proteasomes, 30 μM substrate): unable to distinguish between the two proteasomes

IC50 (LMP7 / β5): 256 nM
Molecule: COc1ccc(C[C@H](NC(=O)[C@H](C)NC(=O)CN2CCOCC2)C(=O)N[C@@H](Cc2ccccc2)C(=O)[C@]2(C)CO2)cc1 [ONX 0914]
processed Nrf1 (p110) level (western blot) (Nrf1): accumulation of processed Nrf1 (p110) | PSMB8 mRNA level (PSMB8 (LMP7) mRNA): increased PSMB8 mRNA levels | disease progression [2]: attenuate disease progression | recovery of LMP7 activity after irreversible inhibition (primary human PBMCs): confirmed in primary human PBMCs | recovery of LMP7 activity after irreversible inhibition (SUP-B15 cell line [3]): rapid recovery | global ubiquitinated protein level (immunoblot) (SUP-B15 cell line [4]): global accumulation of ubiquitinated protein

Ratio Vmax (i20S/c20S) [1]: 0.28 | Ratio kcat/Km (i20S/c20S) [1]: 0.33
Molecule: Cc1cc(C(=O)N[C@H](C(=O)N[C@@H](CCC(N)=O)C(=O)N[C@@H](C)C(=O)Nc2ccc3c(CC(N)=O)cc(=O)oc3c2)C(C)C)no1 [iso-VQA-ACC]
